One series concerns HIV-1 (IIIB). The experiment in a line: microbe, parasite or virus in culture. Type of series: cell-based. Particulars: Human immunodeficiency virus 1, IIIB, MT4, WT HIV-1, protection of MT-4 cells against HIV-induced cytopathogenicity; mean ± SD, n ≥ 3. The text has this:
(§1) Inspired by our previous research on heteroaromatic-biphenyl-DAPYs[15], the 4-cyanophenyl group on the biphenyl moiety was replaced with a privileged 4-pyridyl group for further evaluation.

The nature of the next series: in vitro. Particulars: human, CC50.
Description: as §1

For a further series, the system named is HIV-1 L100I. The experiment in a line: Antiviral activity against HIV-1 mutant L100I in MT-4 cells. Type of series: cell-based. Particulars: Human immunodeficiency virus 1, MT4, read-out: EC50 L100I.
The next series concerns HIV-1 K103N. Briefly: Antiviral activity against HIV-1 mutant K103N in MT-4 cells. The format is cell-based. Particulars: Human immunodeficiency virus 1, MT4, read-out: EC50 K103N.
The test system of a further series is HIV-1 Y181C. The experiment in a line: Antiviral activity against HIV-1 mutant Y181C in MT-4 cells. Type of series: cell-based. The settings on record: Human immunodeficiency virus 1, MT4, read-out: EC50 Y181C.
Another series deals with HIV-1 E138K. Briefly: Antiviral activity against HIV-1 mutant E138K in MT-4 cells. The format is cell-based. The settings on record: Human immunodeficiency virus 1, MT4, read-out: EC50 E138K.
The subject of another series is HIV-1 F227L + V106A. The experiment in a line: microbe, parasite or virus in culture. Type of series: cell-based. The settings on record: Human immunodeficiency virus 1, MT4, read-out: EC50 F227L + V106A.
Series [1] deals with HIV-1 K103N + Y181C (RES056). Briefly: Antiviral activity against HIV-1 double mutant K103N + Y181C (RES056) in MT-4 cells. The format is cell-based. Particulars: Human immunodeficiency virus 1, MT4, read-out: EC50 K103N + Y181C.
The next series has as its system MT-4 cells. Particulars: introduction; cited from earlier work.
For series [2] the following is noted: human liver microsomes; cited from earlier work.
The conditions of series [3]: comparison values; cited from earlier work.
Another series deals with CYP3A4-M (Homo sapiens, UniProt P08684). Particulars: read-out: IC50 CYP3A4-M; cited from earlier work.
Sequence of CYP3A4-M (P08684 whole entry): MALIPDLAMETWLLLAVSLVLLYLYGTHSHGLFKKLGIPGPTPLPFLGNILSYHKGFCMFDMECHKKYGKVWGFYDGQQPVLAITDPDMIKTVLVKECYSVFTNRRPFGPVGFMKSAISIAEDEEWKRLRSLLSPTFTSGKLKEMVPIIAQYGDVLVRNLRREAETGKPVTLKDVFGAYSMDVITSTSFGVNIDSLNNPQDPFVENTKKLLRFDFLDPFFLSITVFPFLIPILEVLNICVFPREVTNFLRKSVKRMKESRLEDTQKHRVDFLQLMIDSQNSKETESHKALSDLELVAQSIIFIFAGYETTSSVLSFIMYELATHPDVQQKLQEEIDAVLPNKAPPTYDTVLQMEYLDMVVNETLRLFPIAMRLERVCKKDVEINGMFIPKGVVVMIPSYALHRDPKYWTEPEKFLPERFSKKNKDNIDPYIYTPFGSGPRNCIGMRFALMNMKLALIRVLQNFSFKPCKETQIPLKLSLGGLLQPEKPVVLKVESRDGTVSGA

By EC50 is commonly meant the concentration needed to bring the measured effect to its halfway point. Usually IC50 stands for the concentration needed to halve the response being measured. As for `Cc1cc(C#N)cc(C)c1Oc1nc(Nc2ccc(C#N)cc2)nc(N)c1Br` [ETR, etravirine, reference compound], the EC50 came to 3.2 ± 0.7 nM with HIV-1 (IIIB); 4.4 ± 1.6 nM in the series with HIV-1 L100I; 2.8 ± 0.7 nM in the series on HIV-1 K103N; 13 ± 2.8 nM in the series with HIV-1 Y181C; 7.6 ± 2.3 nM with HIV-1 E138K; 12 ± 9.4 nM in the series on HIV-1 F227L + V106A. Besides, in [1], the EC50 came to 44 ± 23 nM. For the same compound, the CC50 in the series “in vitro” is more than 4600 nM; in the series on MT-4 cells it was approximately 5000 nM. Besides, the “CLint(liver)” value in series [2] was 19.0 mL/min/kg. Also, the “CLint(mic)” value in series [2] was 21.1 µL/min/mg. Also, the t1/2 in [2] was 1.09 h. Besides, the “F (oral bioavailability)” value in series [3] is on record as “undetectable”. Moreover, the IC50 at CYP3A4-M was 41300 nM.
